Like-named read-outs stand apart in the source and are kept apart here.
Assays:
Bladder cancer cells = conditions: 1 × 10^−4 M; Bladder (1), cell line not given
LNCaP xenografts = format: in vivo, athymic mice
Protocol: All the animal studies were performed according to the guidelines and approval of the Institutional Animal Care and Use Committee and Research Animal Resource Center of Weill Medical College of Cornell University, New York. Twelve mice of 13 weeks of age were purchased from The National Cancer Institute (NCI) and were housed in a pathogen-free environment under controlled conditions of light and humidity and with free access to food and water. LNCaP cells were grown in RPMI-1640 with 10% FBS until 80-90% confluent. Cells were scraped into PBS and collected by centrifugation. The LNCaP cell pellets were suspended in Matrigel (Ref) at 2.5×10^7 cells/ml. Mice were injected subcutaneously (“s.c.”) with 200 μl (5×10^6 cells) of the cell suspension at one site on the flank. Visible tumor grew after 7-8 days following implantation and mice were divided into three groups of four mice each.
Mice received s.c. injection daily for ten days. […] Tumors were measured daily with calipers, and tumor volumes were calculated by the formula: π/6(1×w×h). Animals were also weighed daily and monitored for general health status and vital signs of possible toxicity due to treatment. At the end of the treatment period, the animals were sacrificed and tumors were excised, weighed and prepared for immunohistochemical and histological studies. […]

[1] = system: human prostate cancer DU-145 cell line; experiment: MTT cytotoxicity assay, DU-145; format: cell-based; conditions: for Percent Killed: Prostate (1); for Growth Inhibition %: 1 × 10^−5
Protocol: (§1) The human prostate cancer LNCaP, PC-3, and DU-145 cell lines, as well as human fibroblast cell line, were obtained from the American Type Culture Collection (“ATCC”) and maintained in RPMI-1640, F-12k, and MEM mediums, respectively, supplemented with 10% FBS. Cell lines were maintained at 37° C. under a humidified atmosphere and 5% CO2 for testing of the cytotoxicity of betulinol derivatives. The cytotoxicity assay was performed using MTT assay according to the instructions of ATCC protocol. Cells 1×10^5 in 0.1 ml/well were plated in 96-well culture plates (Costar) and incubated with a different dilution of betulinol derivatives for 24, 48, and 72 hours. Ten μl of 3-[4,5-dimethylthiazol-2-yl]-2,5 diphenyl tetrazolium bromide was added into each well at the end of each incubation period. The reaction product, formazan, was dissolved in the detergent, and the absorbance was read at 540 nm (Ref).

[2] = Solubilization in PBS containing human γ-globulin, human albumin and ethanol; conditions: for Observation: 1 × 10^−3 mol/L
Description: Human γ-Globulin and human albumin are two major biocompatible components in human serum.

184B5/HER = experiment: In vitro cytotoxicity, Breast (1), 184B5/HER; format: cell-based; conditions: 1 × 10^−4 M
LNCaP = experiment: Anchorage-independence growth assay in soft agar, LNCaP; format: cell-based; conditions: Homo sapiens, 336 h, 1 × 10^−5 M, 14 days, read-out: Inhibition % on Anchorage-independent Growth
Protocol: (§2) Anchorage-independence growth assay was performed to determine the ability of cancer cells to form colonies in soft agar. 1.0×10^4 cancer cells were suspended in 2 ml of DMEM medium containing 0.33% agar in the presence or absence of betulinol derivatives. The compounds were overlaid on a 2 ml matrix made up of 0.6% agar. The cultures were incubated at 37° C. in a humidified environment under 5% CO2 for 14 days without medium change. The cultures were fixed in Comoy's fixative (acetic acid/100% ethanol 1:3 v/v) and the numbers of anchorage-independent, tridimentional colonies (≧40 μm diameter) formed were counted under 10× magnification (Katdare et al., Cancer Lett. 111:141-47 (1997), which is hereby incorporated by reference in its entirety).

DU-145 = experiment: Anchorage-independence growth assay in soft agar, DU-145; format: cell-based; conditions: Homo sapiens, 336 h, 1 × 10^−5 M, 14 days, read-out: Inhibition % on Anchorage-independent Growth
Protocol: as §2

[3] = system: human prostate cancer PC-3 cell line; experiment: MTT cytotoxicity assay, PC-3; format: cell-based; conditions: for Percent Killed: Prostate (1); for Growth Inhibition %: 1 × 10^−5
Protocol: as §1

[4] = system: human fibroblast cell line; format: cell-based; conditions: Fibroblasts; for Percent Killed: Prostate (1); for Growth Inhibition %: 1 × 10^−5
Protocol: as §1

[5] = system: human prostate cancer LNCaP cell line; experiment: MTT cytotoxicity assay, LNCaP; format: cell-based; conditions: for Percent Killed / inhibition at 100 µM / inhibition at 10 µM / inhibition at 1 µM / Growth Inhibition %: LNCaP; for Percent Killed: Prostate (1); for inhibition at 100 µM / inhibition at 10 µM / inhibition at 1 µM: Homo sapiens, read-out: Growth Inhibition %; for inhibition at 1 µM: 1 × 10^−6 M; for Growth Inhibition %: 1 × 10^−5 (Table 12)
Protocol: as §1
However, these compounds were not tested on prostate cancer LNCaP cell line by NCI. […] The anti-tumor activity of the compounds was determined at three doses and the total growth inhibition kill effect as pertinent of the control at 24, 48, and 72 hours as presented in Table 11.

PC-3 = experiment: Anchorage-independence growth assay in soft agar, PC-3; format: cell-based; conditions: Homo sapiens, 336 h, 1 × 10^−5 M, 14 days, read-out: Inhibition % on Anchorage-independent Growth
Protocol: as §2

[6] = Solubility in DMSO diluted with culture medium (GC); conditions: for State of solution: 0.5 mg/mL (1 × 10^−3 mol/L), culture medium
Protocol: The residue was dissolved in chloroform analyzed on GC.
Ethyl ether was then evaporated. […] Concentration of drug in the above solutions was analyzed by GC and determined from the standard solubility curve.

C=C(C)C1CCC2(C(=O)O)CC[C@]3(C)[C@H](CC[C@@H]4[C@@]5(C)CCC(=O)C(C)(C)[C@@H]5CC[C@]43C)C12 (some centres unmarked) [Compound 4, Betulonic Acid]
Percent Killed (Bladder cancer cells): 37%
health status and vital signs of the mice during treatment (LNCaP xenografts; mouse, in vivo): no adverse effects on vital signs
increase of tumor volume on day 10 compared to day 1 (LNCaP xenografts; s.c. daily for ten days, 20 mg/kg, LNCaP xenografts in athymic mice): 20.3%
Percent Killed ([1]; 1 × 10^−4 M): 54%
Percent Killed ([1]; 1 × 10^−5 M): 51%
Growth Inhibition % ([1]; 24 hours): 33%
Growth Inhibition % ([1]; 48 hours): 51%
Observation ([2]; ethanol 220 μL, γ-globulin PBS 1.48 mL, albumin PBS 0.49 mL): Cloudy
Observation ([2]; ethanol 280 μL, γ-globulin PBS 0 mL, albumin PBS 2.50 mL): Complete
Observation ([2]; ethanol 280 μL, γ-globulin PBS 2.50 mL, albumin PBS 0 mL): Suspension
Observation ([2]; ethanol 308 μL, γ-globulin PBS 0.69 mL, albumin PBS 2.07 mL): Almost Clear
Observation ([2]; ethanol 330 μL, γ-globulin PBS 1.48 mL, albumin PBS 1.48 mL): Little Cloudy
Observation ([2]; ethanol 352 μL, γ-globulin PBS 0.32 mL, albumin PBS 2.85 mL): Clear
concentration completely dissolved ([2]; PBS containing 4% human albumin, final concentration of 10% ethanol): 1×10^−3 mol per liter
concentration completely dissolved ([2]; human albumin PBS solution with 10% ethanol): 0.001 mol/L
Percent Killed (184B5/HER): Toxic
inhibition at 10 µM (LNCaP): 0%
inhibition at 10 µM (DU-145): 12.5%
Percent Killed ([3]; 1 × 10^−4 M): 54%
Percent Killed ([3]; 1 × 10^−5 M): 41%
Growth Inhibition % ([3]; 24 hours): 9.7%
Growth Inhibition % ([3]; 48 hours): 41.1%
Percent Killed ([4]; 1 × 10^−4 M): No effect
Percent Killed ([4]; 1 × 10^−5 M): No effect
Growth Inhibition % ([4]; 24 hours): 0%
Growth Inhibition % ([4]; 48 hours): 0%
Percent Killed ([5]; 1 × 10^−4 M): 81%
Percent Killed ([5]; 1 × 10^−5 M): 75%
inhibition at 100 µM ([5]; 24 h, 24 hours, 1 × 10^−4 M): 70.4 ± 19.1%
inhibition at 10 µM ([5]; 24 h, 24 hours, 1 × 10^−5 M): 24.2 ± 10.8%
inhibition at 1 µM ([5]; 24 h, 24 hours): 9.2 ± 6.1%
inhibition at 100 µM ([5]; 48 h, 48 hours, 1 × 10^−4 M): 81 ± 12.6%
inhibition at 10 µM ([5]; 48 h, 48 hours, 1 × 10^−5 M): 69.5 ± 20.2%
inhibition at 1 µM ([5]; 48 h, 48 hours): 27.8 ± 11.4%
inhibition at 100 µM ([5]; 72 h, 72 hours, 1 × 10^−4 M): 80.8 ± 15.8%
inhibition at 10 µM ([5]; 72 h, 72 hours, 1 × 10^−5 M): 88.4 ± 7.96%
inhibition at 1 µM ([5]; 72 h, 72 hours): 45 ± 12.3%
Growth Inhibition % ([5]; 24 hours): 38 ± 8%
Growth Inhibition % ([5]; 48 hours): 75 ± 9%
kill effects on LNCaP cell growth compared to the other compounds ([5]; MTT assay, compounds 1-8): highest kill effects
inhibition at 10 µM (PC-3): 26.1%
State of solution ([6]; 3% DMSO in total Vol.): Suspension
State of solution ([6]; 9% DMSO in total Vol.): Suspension
State of solution ([6]; 14% DMSO in total Vol.): Cloudy
State of solution ([6]; 20% DMSO in total Vol.): clear solution
State of solution ([6]; 20% DMSO in total Vol., listed as BA): Clear
amount dissolved out of 3 mg ([6]; 1% DMSO in culture medium containing 10% FBS, nominal 1×10^−3 mol/L): 0.4 mg
